The results in this text go back to patent publication US5599559A, “Calcium channel blocking polypeptide from agelenopsis aperta and therapeutic methods employing it” (priority 1995, dated 1997).

Where two headings read alike, the source gives them in different places.

This experiment deals with calcium channels. It counts as cell-based, rats. As to conditions: read-out: IC50 for blocking calcium channels, pH 7.4.

For orientation: IC50 means the concentration needed to halve the response being measured. With `COc1ccc(CCN(C)CCCC(C#N)(c2ccc(OC)c(OC)c2)C(C)C)cc1OC` (centres unmarked) [Verapamil], the IC50 was 4.8 µM.
For “H2 N-Glu-Ala-Cys-Ala-Gly-Ala-Tyr-Lys-Ser-Cys-Asp-Lys-Val-Lys-Cys-Cys-His-Asp- Arg-Arg-Cys-Arg-Cys-Asn-lle-Ala-Met-Asp-Asn-Cys-Val-Cys-Lys-Leu-Phe-Tyr-Cys-Glu-Leu-Phe-Gly-Thr-Cys-Asp-Arg-Leu-Lys-Pro [peptide J2]”, under “cerebellar granule cells from 8 day old rats, fura2 fluorescence, 37° C.”, the IC50 was under 0.2 µM.
